Assay results published in US20240287138A1, “CYCLIC PEPTIDES FOR INHIBITING TNF RECEPTOR 1 ACTIVITY” (Merck Sharp & Dohme LLC, priority 2023, published 2024).
Numbered stars: 1 amine (or outer) side, 2 acyl side, 3 side chain; on linkers, the order of the positions; unused ones are H or OH. Bridge positions count the residues as written; N and C are the ends. Square brackets hold non-standard residues; d marks the D form. Peptide text beside a SMILES is read from it. Trp(βS-Me,7-OMe) = COc1cccc2c([C@H](C)[C@H](N)C(=O)O)c[nH]c12; Trp(4-Cl) = N[C@@H](Cc1c[nH]c2cccc(Cl)c12)C(=O)O; Trp(7-Cl) = N[C@@H](Cc1c[nH]c2c(Cl)cccc12)C(=O)O; X15 = C[C@H](c1ccc(O)cc1)[C@H](N[*:1])C(=O)[*:2]; Phe(4-CONH2) = NC(=O)c1ccc(C[C@H](N)C(=O)O)cc1; Phe(4-COOH) = N[C@@H](Cc1ccc(C(=O)O)cc1)C(=O)O; Trp(7-aza) = N[C@@H](Cc1c[nH]c2ncccc12)C(=O)O; αMeW = C[C@](N)(Cc1c[nH]c2ccccc12)C(=O)O; X1 = O=C([C@@H]1CC[C@H](N[*:1])C1)[*:2]; 2Nal = N[C@@H](Cc1ccc2ccccc2c1)C(=O)O; Pip(4-aza) = O=C(O)[C@@H]1CNCCN1; hPhe = N[C@@H](CCc1ccccc1)C(=O)O; 3Pal = N[C@@H](Cc1cccnc1)C(=O)O; 4Pal = N[C@@H](Cc1ccncc1)C(=O)O; NMeE = CN[C@@H](CCC(=O)O)C(=O)O; Dap(Me) = CNC[C@H](N)C(=O)O; αMeS = C[C@](N)(CO)C(=O)O; Nle = CCCC[C@H](N)C(=O)O; Dap = NC[C@H](N)C(=O)O; Sar = CNCC(=O)O

Columns and labels:
[1] = target: T1, human TNFR1 extracellular domain (ECD) protein (Homo sapiens, UniProt P19438); assay: SPR binding affinity to captured human TNFR1 ECD
T1 construct: HRV 3C protease cleavage site (C); 6His (C, cleaved yes); made in house; host or cells: Sf21 insect cells (baculovirus), secreted
T1 sequence (P19438 30-211): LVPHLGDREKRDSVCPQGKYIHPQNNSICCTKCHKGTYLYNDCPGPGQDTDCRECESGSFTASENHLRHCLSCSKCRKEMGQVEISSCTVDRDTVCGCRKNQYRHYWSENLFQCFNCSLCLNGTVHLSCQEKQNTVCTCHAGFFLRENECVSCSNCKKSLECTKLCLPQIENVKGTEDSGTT
Procedure, shortened: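 Peptides are tested against captured biotin-tagged human TNFR1 ECD, with parallel TNFR2 ECD binding to check selectivity. Buffer: 10 mM HEPES pH 7.4, 150 mM NaCl, 3 mM EDTA, 0.05% P20, 2% DMSO.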

[2] = target: T2, human soluble TNFR1 (sTNFR1) (Homo sapiens, UniProt P19438); assay: Human sTNFR1-peptide displacement assay (LanthaScreen Eu TR-FRET binding assay)
T2 construct: made in house; host or cells: Sf21 (baculovirus)
T2 sequence (P19438 with tags, fused parts or gaps): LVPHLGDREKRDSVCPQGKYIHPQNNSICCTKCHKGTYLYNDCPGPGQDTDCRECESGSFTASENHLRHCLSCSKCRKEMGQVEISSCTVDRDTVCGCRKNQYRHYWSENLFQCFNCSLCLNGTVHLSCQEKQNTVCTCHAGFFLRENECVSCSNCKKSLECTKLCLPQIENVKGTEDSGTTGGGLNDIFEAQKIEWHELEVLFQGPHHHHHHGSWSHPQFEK
Procedure, shortened: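 Readout is the 665/615 nm TR-FRET ratio (Eu anti-His donor, streptavidin-Alexa647 acceptor), normalized to DMSO and saturating displacer, fit by Morrison-based five-parameter logistic for Kd^app. His-tagged sTNFR1 (1-211) prebound to 100 nM biotinylated peptide SEQ ID NO.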

Question: How did the Kd [1] turn out when `CN1CC(=O)N[C@@H](Cc2c[nH]c3ccccc23)C(=O)N[C@H](C(N)=O)CSCC(=O)N[C@@H](CCc2ccccc2)C(=O)N[C@@H](Cc2ccncc2)C(=O)N[C@@H](CN)C(=O)N[C@@H](Cc2c[nH]c3ccccc23)C(=O)N2CCC[C@@H]2C(=O)N[C@@H](CC(N)=O)C(=O)N[C@@H](Cc2ccncc2)C(=O)N[C@@H](Cc2ccc3ccccc3c2)C(=O)N[C@@](C)(CO)C(=O)N[C@@H](Cc2ccc(C(=O)O)cc2)C(=O)N[C@@H](Cc2cccnc2)C1=O` [SEQ ID NO. 233] ({CH2CO}-[hPhe][4Pal][Dap]W[dP]N[4Pal][2Nal][αMeS][Phe(4-COOH)][3Pal][Sar]WC-NH2; thioether N-14) was run?
Answer: 0.78 nM

Question: And the IC50 [2]?
Answer: 2.65 nM

Question: `CCCC[C@@H]1NC(=O)CSC[C@@H](C(N)=O)NC(=O)[C@](C)(Cc2c[nH]c3ccccc23)NC(=O)CN(C)C(=O)[C@H](Cc2ccc(O)cc2)NC(=O)[C@H](Cc2ccc(C(=O)O)cc2)NC(=O)[C@](C)(CO)NC(=O)[C@H](Cc2c[nH]c3c(Cl)cccc23)NC(=O)[C@H](Cc2ccncc2)NC(=O)[C@H](CC(N)=O)NC(=O)[C@H](CCC(=O)O)N(C)C(=O)[C@H](Cc2c[nH]c3ncccc23)NC(=O)[C@H](CNC)NC(=O)[C@H](Cc2ccncc2)NC1=O` [SEQ ID NO. 235] ({CH2CO}-[Nle][4Pal][Dap(Me)][Trp(7-aza)][NMeE]N[4Pal][Trp(7-Cl)][αMeS][Phe(4-COOH)]Y[Sar][αMeW]C-NH2; thioether N-14) was tested. Which Kd [1] did it give?
Answer: 1.2 nM

Question: What about the IC50 [2] of the same molecule?
Answer: 1.92 nM

Question: Which results are given for `CN1CC(=O)N[C@@H](Cc2c[nH]c3cccc(Cl)c23)C(=O)N[C@H](C(N)=O)CSCC(=O)N[C@@H](CCC(N)=O)C(=O)N[C@@H](Cc2ccncc2)C(=O)N[C@@H](CO)C(=O)N[C@@H](Cc2c[nH]c3ncccc23)C(=O)N(C)[C@@H](CCC(=O)O)C(=O)N[C@@H](CC(N)=O)C(=O)N[C@@H](Cc2ccncc2)C(=O)N[C@@H](Cc2c[nH]c3c(Cl)cccc23)C(=O)N[C@@](C)(CO)C(=O)N[C@@H](Cc2ccc(C(=O)O)cc2)C(=O)N[C@@H](Cc2ccc(O)cc2)C1=O` [SEQ ID NO. 239] ({CH2CO}-Q[4Pal]S[Trp(7-aza)][NMeE]N[4Pal][Trp(7-Cl)][αMeS][Phe(4-COOH)]Y[Sar][Trp(4-Cl)]C-NH2; thioether N-14)?
Answer: Kd [1]: 0.3 nM; IC50 [2]: 0.52 nM; Kd [2]: 0.61 nM

Question: With `CCCC[C@@H]1NC(=O)[C@@H]2CC[C@@H](C2)NC(=O)[C@H]([C@@H](C)c2c[nH]c3c(OC)cccc23)NC(=O)CN(C)C(=O)[C@H](Cc2ccc(OC)cc2)NC(=O)[C@H](Cc2ccc(C(=O)O)cc2)NC(=O)[C@](C)(CO)NC(=O)[C@H](Cc2c[nH]c3c(Cl)cccc23)NC(=O)[C@H](Cc2ccc(C(N)=O)cc2)NC(=O)[C@H](CCC(N)=O)NC(=O)[C@H](CCC(=O)O)N(C)C(=O)[C@H](Cc2c[nH]c3ccccc23)NC(=O)[C@@H]2CNCCN2C(=O)[C@H](Cc2ccncc2)NC1=O` [SEQ ID NO. 240] (cyclo([4Pal][Pip(4-aza)]W[NMeE]Q[Phe(4-CONH2)][Trp(7-Cl)][αMeS][Phe(4-COOH)]Y(Me)[Sar][Trp(βS-Me,7-OMe)][X1][Nle])) as the molecule, how does the Kd [1] read?
Answer: 0.09 nM

Question: And the Kd [2]?
Answer: 0.23 nM

Question: For `CN1CC(=O)N[C@@H](Cc2c[nH]c3ccccc23)C(=O)N[C@H](C(N)=O)CSCC(=O)N[C@@H](CCCCN)C(=O)N[C@@H](Cc2ccc(O)cc2)C(=O)N[C@@H](CO)C(=O)N[C@@H](Cc2c[nH]c3ccccc23)C(=O)N2CCC[C@@H]2C(=O)N[C@@H](CCC(N)=O)C(=O)N[C@@H](Cc2ccncc2)C(=O)N[C@@H](Cc2c[nH]c3ccccc23)C(=O)N[C@@](C)(CO)C(=O)N[C@@H](Cc2ccc(C(=O)O)cc2)C(=O)N[C@@H](Cc2ccc(O)cc2)C1=O` [SEQ ID NO. 242] ({CH2CO}-KYSW[dP]Q[4Pal]W[αMeS][Phe(4-COOH)]Y[Sar]WC-NH2; thioether N-14), which Kd [1] is on record?
Answer: 0.3 nM

Question: What about the IC50 [2] of the same molecule?
Answer: 1.21 nM

Question: How did the Kd [1] turn out when `CCCC[C@@H]1NC(=O)CSC[C@@H](C(N)=O)NC(=O)[C@H]([C@@H](C)c2c[nH]c3c(OC)cccc23)NC(=O)CN(C)C(=O)[C@H](Cc2ccc(O)cc2)NC(=O)[C@H](Cc2ccc(C(=O)O)cc2)NC(=O)[C@](C)(CO)NC(=O)[C@H](Cc2c[nH]c3c(Cl)cccc23)NC(=O)[C@H](Cc2ccncc2)NC(=O)[C@H](CC(N)=O)NC(=O)[C@H](CCC(=O)O)N(C)C(=O)[C@H](Cc2c[nH]c3ncccc23)NC(=O)[C@H](CO)NC(=O)[C@H]([C@H](C)c2ccc(O)cc2)NC1=O` [SEQ ID NO. 243] ({CH2CO}-[Nle][X15]S[Trp(7-aza)][NMeE]N[4Pal][Trp(7-Cl)][αMeS][Phe(4-COOH)]Y[Sar][Trp(βS-Me,7-OMe)]C-NH2; thioether N-14) was run?
Answer: 0.06 nM

Question: What about the Kd [2] of the same molecule?
Answer: 0.49 nM
